# Laboratory results from patent US10138260B2, “Compounds of phosphinanes and azaphosphinanes, a process for their preparation and pharmaceutical compositions containing them” (LES LABORATOIRES SERVIER, priority 2016, dated 2018).
# Target: T1, TAFIa (Homo sapiens, UniProt Q96IY4)
# T1 sequence (Q96IY4 115-423): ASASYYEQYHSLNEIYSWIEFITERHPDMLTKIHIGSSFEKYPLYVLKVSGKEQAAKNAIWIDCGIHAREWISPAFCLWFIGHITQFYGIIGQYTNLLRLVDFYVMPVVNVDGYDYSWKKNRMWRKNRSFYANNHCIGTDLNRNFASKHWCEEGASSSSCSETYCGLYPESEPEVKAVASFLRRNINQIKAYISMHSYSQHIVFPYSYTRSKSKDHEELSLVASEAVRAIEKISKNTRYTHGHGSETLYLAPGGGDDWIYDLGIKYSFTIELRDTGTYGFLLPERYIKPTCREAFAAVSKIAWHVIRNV
# Experiment: Inhibition of TAFIa (hippuryl-Arg test)
# Type: biochemical
# Conditions: TAFIa 2 nM, hippuryl-arginine 5 mM, 45 minutes, relative to control containing the carrier; for inhibition at 0.01 µM: compound at 10 nM; for inhibition at 0.02 µM: compound at 20 nM
# How it was run: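 TAFI (4 nM) activated 20 min by thrombin/thrombomodulin with 10 mM calcium, stopped with PPACK; TAFIa (2 nM) then incubated 45 min with compound and 5 mM hippuryl-arginine in Hepes buffer, pH 7.4, 28 °C. Absorbance at 405 nm, blank-corrected; % inhibition versus carrier at 10 and 20 nM.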
Compound,inhibition at 0.01 µM [%],inhibition at 0.02 µM [%]
"NCCCC[C@@]1(C(=O)O)CN(Cc2ccc(F)cc2-c2ccc(O)cc2)CCP1(=O)O [Example 211, (3S)-3-(4-AMINOBUTYL)-1-[[4-FLUORO-2-(4-HYDROXYPHENYL)PHENYL]-METHYL]-4-HYDROXY-4-OXO-1,4-AZAPHOSPHINANE-3-CARBOXYLIC ACID]",85,95
"COc1ccc(-c2cc(F)ccc2CN2CCP(=O)(O)[C@](CCCCN)(C(=O)O)C2)cc1OC [Example 179, (3S)-3-(4-AMINOBUTYL)-1-[[2-(3,4-DIMETHOXYPHENYL)-4-FLUOROPHENYL]-METHYL]-4-HYDROXY-4-OXO-1,4-AZAPHOSPHINANE-3-CARBOXYLIC ACID]",74,83
"NCCCC[C@@]1(C(=O)O)CN(Cc2ccc(F)cc2-c2cc3ccccc3s2)CCP1(=O)O [Example 216, (3S)-3-(4-AMINOBUTYL)-1-[[2-(1-BENZOTHIOPHEN-2-YL)-4-FLUOROPHENYL]-METHYL]-4-HYDROXY-4-OXO-1,4-AZAPHOSPHINANE-3-CARBOXYLIC ACID]",71,85
"NCCCCC1(C(=O)O)CN(Cc2ccccc2-c2cccc(-c3ccccc3)c2)CCP1(=O)O (centres unmarked) [Example 49, 3-(4-AMINOBUTYL)-4-HYDROXY-4-OXO-1-[[2-(3-PHENYLPHENYL)PHENYL]-METHYL]-1,4-AZAPHOSPHINANE-3-CARBOXYLIC ACID]",60,73

# Other lines, results leading:
inhibition at 0.01 µM [%],inhibition at 0.02 µM [%],Compound
71,88,"NCCCC[C@@]1(C(=O)O)CN(Cc2ccc(F)cc2-c2cccc(F)c2)CCP1(=O)O [Example 226, (3S)-3-(4-AMINOBUTYL)-1-[[4-FLUORO-2-(3-FLUOROPHENYL)PHENYL]METHYL]-4-HYDROXY-4-OXO-1,4-AZAPHOSPHINANE-3-CARBOXYLIC ACID]"
77,91,"NCCCC[C@@]1(C(=O)O)CN(Cc2ccc(F)cc2-c2ccc(O)nc2)CCP1(=O)O [Example 241, (3S)-3-(4-AMINOBUTYL)-1-[[4-FLUORO-2-(6-HYDROXYPYRIDIN-3-YL)PHENYL]-METHYL]-4-HYDROXY-4-OXO-1,4-AZAPHOSPHINANE-3-CARBOXYLIC ACID]"
63,82,"NCCCC[C@@]1(C(=O)O)CN(Cc2ccc(O)cc2-c2ccc(F)cc2)CCP1(=O)O [Example 228, (3S)-3-(4-AMINOBUTYL)-1-[[2-(4-FLUOROPHENYL)-4-HYDROXYPHENYL]-METHYL]-4-HYDROXY-4-OXO-1,4-AZAPHOSPHINANE-3-CARBOXYLIC ACID]"
